# Patent US11760758B2 (The Trustees of Columbia University in the City of New York, priority 2018, dated 2023)
# Read-outs that look alike come from different tables or passages of the source.
# How the values were obtained:
# [1] = target: T1, human MOR (Homo sapiens, UniProt P35372); assay: BRET functional assay for G protein activation at hMOR; type: cell-based; conditions: for Agonist activity at hMOR (in words): compared to DAMGO
# T1 construct: host or cells: HEK-293T
# [2] = target: T1, human MOR; conditions: Kruegel, et al. 2016; cited from earlier work
# [3] = target: T2, mouse DOR (Mus musculus, UniProt P32300); assay: Radioligand competition binding ([125I]BNtxA), CHO membranes, DOR; conditions: for Ki: mean +/- SE, n = 3, CHO transfected with mouse opioid receptors
# T2 construct: expressed in transfected cells; membranes
# [4] = target: T3, mouse MOR (Mus musculus, UniProt P42866); assay: cAMP sensor CAMYEL functional assay at mMOR; type: cell-based; set-up: host or cells: HEK-293T; conditions: for Agonist activity at mMOR (in words): mMOR CAMYEL assay
# [5] = target: T4, mouse KOR (Mus musculus, UniProt P33534); assay: Radioligand competition binding ([125I]BNtxA), CHO membranes, KOR; conditions: for Ki: mean +/- SE, n = 3, CHO transfected with mouse opioid receptors
# T4 construct: expressed in transfected cells; membranes
# [6] = target: T3, mouse MOR; assay: Radioligand competition binding ([125I]BNtxA), CHO membranes, MOR; conditions: for Ki: mean +/- SE, n = 3, CHO transfected with mouse opioid receptors
# [7] = Table 2, MG-EG series, hMOR G protein BRET, normalized to DAMGO Emax = 100%
# [8] = Table 1, mitragynine series, hMOR G protein BRET, normalized to DAMGO Emax = 100%
# [9] = EC50 (nM), Table 1, mitragynine series, hMOR G protein BRET, 95% confidence limits in brackets
# [10] = Table 3, 7-OH series, hMOR G protein BRET, normalized to DAMGO Emax = 100%
Structure (SMILES),"Emax [1, 7] [%]",Agonist activity at hMOR (in words) ([1]; hMOR G protein BRET),"Emax [1, 8] [%]",Ki [3] [nM],Emax [4] [%],Ki [5] [nM],Ki [6] [nM],"Emax [1, 10] [%]",further results
"CC[C@@H]1CN2CC[C@@]34OCCO[C@@]3(Nc3cccc(OC)c34)[C@@H]2C[C@@H]1/C(=C\OC)C(=O)OC [Compound 1, mitragynine-ethylene glycol adduct, reference compound]",56.2,partial agonist,,,,,,,"EC50 ([1]; EC50 (nM), Table 2, MG-EG series, hMOR G protein BRET, 95% confidence limits in brackets): 14.8 nM"
"CC[C@@H]1CN2CC[C@@]34OCCO[C@@]3(Nc3cc(F)cc(OC)c34)[C@@H]2C[C@@H]1/C(=C\OC)C(=O)OC [Compound 2, 11-Fluoromitragynine-ethylene glycol adduct]",< 20,negligible agonist activity,,,,,,,
"CC[C@@H]1CN2CC[C@@]34OCCO[C@@]3(Nc3cc(Cl)cc(OC)c34)[C@@H]2C[C@@H]1/C(=C\OC)C(=O)OC [Compound 3, C11-Chloromitragynine-ethylene glycol adduct]",< 20,negligible agonist activity,,,,,,,
"CC[C@@H]1CN2CC[C@@]34OCCO[C@@]3(Nc3cc(Br)cc(OC)c34)[C@@H]2C[C@@H]1/C(=C\OC)C(=O)OC [Compound 4, 11-bromo-MG-EG]",< 20,negligible agonist activity,,,,,,,
"CC[C@@H]1CN2CC[C@@]34OCCO[C@@]3(Nc3cc(O)cc(OC)c34)[C@@H]2C[C@@H]1/C(=C\OC)C(=O)OC [Compound 6, 11-hydroxy-MG-EG]",,,,,,,,,EC50 [1]: 11.3 nM; Emax [1]: 67.4%
"CC[C@@H]1CN2CCc3c([nH]c4cccc(OC)c34)[C@@H]2C[C@@H]1/C(=C\OC)C(=O)OC [Compound 12, mitragynine, reference compound]",,,26.5,,,,,,"Agonist activity at hMOR (in words), previously shown [2]: partial agonist"
"CC[C@@H]1CN2CCc3c([nH]c4cc(F)cc(OC)c34)[C@@H]2C[C@@H]1/C(=C\OC)C(=O)OC [Compound 13, 11-fluoro-MG]",,,49,,,,,,"EC50 [1, 9]: 81.5 nM"
"CC[C@@H]1CN2CCc3c([nH]c4cc(Cl)cc(OC)c34)[C@@H]2CC1/C(=C\OC)C(=O)OC (stereo partly shown) [Compound 14, 11-Chloromitragynine]",,,33.4,,,,,,"EC50 [1, 9]: 327 nM"
"CC[C@@H]1CN2CCc3c([nH]c4cc(Br)cc(OC)c34)[C@@H]2C[C@@H]1/C(=C\OC)C(=O)OC [Compound 15, 11-bromo-MG]",,no/negligible agonist activity,< 20,,,,,,
"CC[C@@H]1CN2CC[C@@]3(O)C(=Nc4cccc(OC)c43)[C@@H]2C[C@@H]1/C(=C\OC)C(=O)OC [Compound 23, 7-hydroxymitragynine, reference compound]",,,,88.5 ± 9.86,92.4,119 ± 2.14,21.4 ± 0.81,88,EC50 [4]: 13 nM
"CC[C@@H]1CN2CC[C@@]3(O)C(=Nc4cc(F)cc(OC)c43)[C@@H]2C[C@@H]1/C(=C\OC)C(=O)OC [Compound 24, 11-Fluoro-7-hydroxymitragynine]",,,,35.8 ± 2.01,63.8,21 ± 3.26,13.7 ± 1.01,47,"Affinity for DOR relative to 7-OH, 23 ([3]; ratio of affinity vs 7-OH (23)): > 2 fold; EC50 ([4]; Table 5, 7-OH series, mMOR CAMYEL cAMP assay, 95% confidence limits in brackets, read-out: EC50): 15.1 nM; Affinity at KOR relative to parent compound 23 ([5]; ratio of affinity vs 7-OH (23)): six times greater; Gain in affinity at mMOR relative to parent 7-OH, 23 ([6]; ratio of affinity vs 7-OH (23)): approximately 2 fold; EC50 ([1]; EC50 (nM), Table 3, 7-OH series, hMOR G protein BRET, 95% confidence limits in brackets): 3.98 nM"
"CC[C@@H]1CN2CC[C@@]3(O)C(=Nc4cc(Cl)cc(OC)c43)[C@@H]2C[C@@H]1/C(=C\OC)C(=O)OC [Compound 25, 11-chloro-7-OH]",,agonist activity was abolished,,47.2 ± 2.36,< 20,30.6 ± 11.3,27.1 ± 1.12,< 20,Agonist activity at mMOR (in words) [4]: not agonists
"CC[C@@H]1CN2CC[C@@]3(O)C(=Nc4cc(Br)cc(OC)c43)[C@@H]2C[C@@H]1/C(=C\OC)C(=O)OC [Compound 26, 11-bromo-7-OH]",,agonist activity was abolished,,57.7 ± 6.66,< 20,81.1 ± 7.11,32.4 ± 1.42,< 20,Agonist activity at mMOR (in words) [4]: not agonists
